Patent US11220524B2, “Selective inhibitors of protein arginine methyltransferase 5 (PRMT5)” (PRELUDE THERAPEUTICS, INCORPORATED, priority 2017, dated 2022)
≈ marks a conversion by molar mass, not a printed value. Where a name gives a salt, the structure may show the parent alone. Read-outs that look alike come from different tables or passages of the source.

How the values were obtained:
PRMT5/MEP50 complex = PRMT5/MEP50 complex (Homo sapiens (Human), UniProt O14744); assay: Biochemical assay: PRMT5/MEP50 methylation of histone H2A with 3H-SAM, filter plate scintillation
Outline: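 5 nM PRMT5/MEP50 preincubated with compound 15–20 min at room temperature, with 5 μM histone H2A as substrate; reaction started with 1 μM 3H-SAM and run 60 min at 30 °C. TCA-stopped, filter-captured methylation counted by scintillation; IC50 from 4-parameter Hill fit.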

[1] = test system: Symmetric Di-Methyl Arginine (sDMA) in Granta-519 cells; assay: Western blot for symmetric di-methyl arginine (sDMA) marks in Granta cells, 3 days treatment; type: cell-based; conditions: Homo sapiens, 3 days
Description: Cell Treatment and Western Blotting for Detecting Symmetric Di-Methyl Arginine (sDMA) and Histone H3R8 Dimethyl Symmetric (H3R8me2s) Marks
Initial compounds screening in A549 cells: Compounds were dissolved in DMSO to make 10 mM stock and further diluted to 0.1, and 1 mM. A549 cells were maintained in PRMI 1640 (Corning Cellgro, Catalog #: 10-040-CV) medium supplemented with 10% v/v FBS (GE Healthcare, Catalog #: SH30910.03). One day before experiment, 1.25×10^5 cells were seeded in 6 well plate in 3 mL medium and incubated overnight. The next day, medium was changed and 3 uL of compound solution was added (1:1,000 dilution, 0.1 and 1 uM final concentration; DMSO concentration: 0.1%), and incubated for 3 days. Cells incubated with DMSO was used as a vehicle control. Cells were washed once with PBS, trypsinized in 150 uL 0.25% Trypsin (Corning, Catalog #: 25-053-CI), neutralized with 1 mL complete medium, transferred to microcentrifuge tubes and collected. Cell pellet was then resuspended in 15 uL PBS, lysed in 4% SDS, and homogenized by passing through homogenizer column (Omega Biotek, Catalog #: HCR003). Total protein concentrations were determined by BCA assay (ThermoFisher Scientific, Catalog #: 23225). Lysates were mixed with 5× Laemmli buffer and boiled for 5 min. Forty ug of total protein was separated on SDS-PAGE gels (Bio-Rad, catalog #: 4568083, 4568043), transferred to PVDF membrane, blocked with 5% dry milk (Bio-Rad, Catalog #: 1706404) in TBS with 0.1% v/v Tween 20 (TBST) for 1 hour at room temperature (RT), and incubated with primary antibodies (sDMA: Cell signaling, Catalog #: 13222, 1:3,000; H3R8me2s: Epigentek, Catalog #: A-3706-100, 1:2,000; β-Actin: Abcam, Catalog #: ab8227, 1:10,000) in 5% dry milk in TBST at 4° C. for overnight. The next day, membranes were washed with TBST, 5×5 min, and incubated withhP conjugated seconded antibody (GE Healthcare; Catalog #: NA934-1ML; 1:5,000) for 2 hours at RT, followed by 5×5 min washes with TBST, and incubation with ECL substrates (Bio-Rad, Catalog #: 1705061, 1705062). Chemiluminescent signal was captured with FluoChem HD2 imager (Proteinsimple) and analyzed by ImageJ.
Cells incubated with DMSO was used as a vehicle control. Cells were harvested and subjected to western blot analysis as described above. SmD3me2s and H3R8me2s bands were quantified by ImageJ. Signals were normalized to β-Actin and DMSO control. IC50 values were calculated using Graphpad Prism.

Granta-519 cells = assay: Cell proliferation assay on Granta-519 cells (CCK-8, day 10); type: cell-based; conditions: Homo sapiens
Description: Cell Proliferation Assay to Determine IC50 on Granta-519 Cells
Granta-519 cells were maintained in PRMI 1640 (Corning Cellgro, Catalog #: 10-040-CV) medium supplemented with 10% v/v FBS (GE Healthcare, Catalog #: SH30910.03). Compounds were dissolved in DMSO to make 10 mM stocks and stored at −20° C. Nine-point, 3-fold serial dilutions were made with DMSO with top concentration at 1 mM (working stocks).
On day of experiment, compound working stocks were further diluted at 1:50 with fresh medium in 96 well plate, and 10 μL of diluted drugs were added to a new 96 well plate for proliferation assay. Cells growing at exponential phase were spun down at 1500 rpm for 4 min and resuspend in fresh medium to reach a density of 0.5×10^6 cells/ml. 200 ul of cells were added to 96 well plate containing diluted drugs and incubated for 3 days. DMSO was used a vehicle control.
One day 3, 10 μL of Cell Counting Kit-8 (CCK-8, Jojindo, CK04-13) solution was added to a new 96 well plate. Cells incubated with drugs for 3 days were resuspended by pipetting up and down, and 100 μL of cells were transferred to 96 well plate containing CCK-8 reagent to measure viable cells. Plates were incubated in C02 incubator for 2 hours and OD450 values were measured with a microplate reader (iMark microplate reader, Bio-Rad).
For re-plating, compound working stocks were diluted at 1:50 with fresh medium and 10 μL of diluted drugs were added to anew 96 well plate. Cells from Day 3plate (50 ul) were added to 96 well plate containing fresh drug and additional 150 of fresh medium was added to reach 200 ul volume. Plate was returned to CO2incubator and incubated for 3more days. Viable cells measurement and re-plating were repeated on day 6, and the final viable cells measurement was taken on day 10.
Percentage of viable cells, relative to DMSO vehicle control, were calculated and plotted in Graphpad Prism ([Inhibitor] vs. normalized response-Variable slope) to determine proliferation IC50 values on day 10.

physchem = assay: physchem
Description: Compounds were first dispersed in freshly prepared FaSSIF (http://biorelevant.com/site_media/upload/documents/How_to_make_FaSSIF_FeSSIF_and_FaSSGF.pdf) buffer in 1 mg/mL respectively, and the standard samples were prepared by preparing 1 mg/mL of test compounds in DMSO. The compounds were then sufficient mixed by vortex mixer for 30 sec, and agitated at 25° C. using 300 rpm form 4 hour in thermo mixer. After incubation, the prepared samples were centrifuged at 10000 rpm for 10 min to remove the undissolved solid, the resulting supernatants were applied to HPLC. The actual concentrations of the compounds were evaluated by measuring the peak area, and the solubility (S) of compounds was calculated according to following equation: S=Csmp=Cstd*(Asmp/Astd)*(Vstd/Vsmp) Where C is the sample concentration in μg/mL, A is the peak area, and V is the injection volume.

[2] = histone H2A 5 μM, SAM 1 μM, enzyme 5 nM, read-out: PRMT5/MEP50 IC50
[3] = 240 h, Granta-519 cell line, read-out: Proliferation IC50

PRMT5/MEP50 complex, sequence (O14744 whole entry): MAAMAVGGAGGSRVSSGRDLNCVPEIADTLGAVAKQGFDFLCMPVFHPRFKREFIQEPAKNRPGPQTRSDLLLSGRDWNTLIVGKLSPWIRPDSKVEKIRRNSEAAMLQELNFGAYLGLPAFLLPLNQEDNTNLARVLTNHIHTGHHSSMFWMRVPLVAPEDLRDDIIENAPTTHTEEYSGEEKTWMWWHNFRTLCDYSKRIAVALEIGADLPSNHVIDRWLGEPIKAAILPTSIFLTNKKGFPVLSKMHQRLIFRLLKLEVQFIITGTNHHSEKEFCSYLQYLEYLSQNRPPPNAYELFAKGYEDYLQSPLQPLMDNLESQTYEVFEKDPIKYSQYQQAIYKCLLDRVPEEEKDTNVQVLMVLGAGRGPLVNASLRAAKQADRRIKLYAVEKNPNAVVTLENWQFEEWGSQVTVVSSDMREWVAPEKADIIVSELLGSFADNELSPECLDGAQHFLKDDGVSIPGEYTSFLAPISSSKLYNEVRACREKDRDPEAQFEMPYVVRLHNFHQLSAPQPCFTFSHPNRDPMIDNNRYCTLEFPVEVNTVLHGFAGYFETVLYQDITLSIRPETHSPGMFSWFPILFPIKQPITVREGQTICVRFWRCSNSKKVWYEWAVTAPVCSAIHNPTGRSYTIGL
PRMT5/MEP50 complex, sequence (Q9BQA1 whole entry partner): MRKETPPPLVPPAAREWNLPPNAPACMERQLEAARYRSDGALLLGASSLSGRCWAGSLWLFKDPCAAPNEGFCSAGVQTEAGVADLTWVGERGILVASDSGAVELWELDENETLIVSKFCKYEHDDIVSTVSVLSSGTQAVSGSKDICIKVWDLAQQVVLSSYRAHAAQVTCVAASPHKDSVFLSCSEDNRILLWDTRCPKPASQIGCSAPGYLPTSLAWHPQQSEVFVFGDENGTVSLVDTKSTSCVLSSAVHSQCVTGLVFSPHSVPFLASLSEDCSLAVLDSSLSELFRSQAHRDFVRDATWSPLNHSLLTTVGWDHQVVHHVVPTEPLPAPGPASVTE

SMILES	IC50 (PRMT5/MEP50 complex; [2]) [nM]	IC50 ([1]; 72 h, Granta-519 cell line) [nM]	IC50 (Granta-519 cells; [3]) [nM]	also measured
CO/N=c1\nc[nH]c2c1ccn2[C@@H]1C[C@H](CCc2ccc3ccc(NCC4CC4)nc3c2)[C@@H](O)[C@H]1O [Example 90-B, 7-((1R,2S,3R,4S)-4-(2-(2-((cyclopropylmethyl)amino)quinolin-7-yl)ethyl)-2,3-dihydroxycyclopentyl)-1,7-dihydro-4H-pyrrolo[2,3-d]pyrimidin-4-one O-methyl oxime]	–	–	–	IC50 (PRMT5/MEP50 complex; biochemical potency, read-out: PRTMT5/MEP50 IC50): 0.82 nM; IC50 ([1]; Granta-519, 72 h, Granta cell line): 28 nM; IC50 (Granta-519 cells; Granta-519, 240 h, Granta cell line, read-out: Prolif. IC50): 229 nM
CO/N=c1\[nH]cnc2c1ncn2[C@@H]1O[C@H]([C@](C)(O)c2ccc(Cl)c(Cl)c2)[C@@H](O)[C@H]1O [Example 92A, (2S,3S,4R,5R)-2-[(1R)-1-(3,4-dichlorophenyl)-1-hydroxy-ethyl]-5-[(6Z)-6-methoxyimino-1H-purin-9-yl]tetrahydrofuran-3,4-diol]	–	–	–	solubility at 4 h (physchem; 25 °C, fassif, thermodynamic from solid): 54.7 µg/mL (≈ 120 µM)
CCO/N=c1/nc[nH]c2c1ccn2[C@@H]1O[C@H]([C@](C)(O)c2ccc(Cl)c(Cl)c2)[C@@H](O)[C@H]1O [Example 99, 7-((2R,3R,4S,5S)-5-((R)-1-(3,4-dichlorophenyl)-1-hydroxyethyl)-3,4-dihydroxytetrahydrofuran-2-yl)-1,7-dihydro-4H-pyrrolo[2,3-d]pyrimidin-4-one O-ethyl oxime]	2.4	8.4	94	–
O[C@@H]1[C@H](O)[C@@H]([C@H](O)c2ccc(Cl)c(Cl)c2)O[C@H]1n1ccc2/c(=N/OCC(F)(F)F)nc[nH]c21 [Example 103, 7-((2R,3R,4S,5R)-5-((R)-(3,4-dichlorophenyl)(hydroxy)methyl)-3,4-dihydroxytetrahydrofuran-2-yl)-1,4a,7,7a-tetrahydro-4H-pyrrolo[2,3-d]pyrimidin-4-one 0-(2,2,2-trifluoroethyl) oxime]	29.6	57.9	62	–
C[C@@](O)(c1ccc(Cl)c(Cl)c1)[C@H]1O[C@@H](n2cnc3/c(=N/O)nc[nH]c32)[C@H](O)[C@@H]1O [Example 108, 9-((2R,3R,4S,5S)-5-((R)-1-(3,4-dichlorophenyl)-1-hydroxyethyl)-3,4-dihydroxytetrahydrofuran-2-yl)-3,9-dihydro-6H-purin-6-one oxime]	–	131	415	IC50 (PRMT5/MEP50 complex): 9.6 nM
CC(=O)CC(c1ccccc1)c1c(O)c2ccccc2oc1=O (stereo not shown) [Warfarin, reference compound]	–	–	–	FaSSIF solubility of positive controls (physchem; positive controls in this experiment): 10 to 25 µg/mL
N/N=c1/nc[nH]c2c1ccn2[C@@H]1O[C@H]([C@H](O)c2ccc(Cl)cc2)[C@@H](O)[C@H]1O [compound 20, 7-[(2R,3R,4S,5R)-5-[(R)-(4-chlorophenyl)-hydroxy-methyl]-3,4-dihydroxy-tetrahydrofuran-2-yl]-1H-pyrrolo[2,3-d]pyrimidin-4-one hydrazone]	0.6	120000	98	–
O/N=c1/nc[nH]c2c1ccn2[C@@H]1O[C@H]([C@H](O)c2ccc(Cl)cc2)[C@@H](O)[C@H]1O [compound 37, 7-[(2R,3R,4S,5R)-5-[(R)-(4-chlorophenyl)-hydroxy-methyl]-3,4-dihydroxy-tetrahydrofuran-2-yl]-1H-pyrrolo[2,3-d]pyrimidin-4-one oxime hydrochloride]	2.4	8	22	–
CO/N=c1\nc[nH]c2c1ccn2[C@@H]1O[C@H]([C@](C)(O)c2ccc(Cl)c(Cl)c2)[C@@H](O)[C@H]1O [compound 61, 7-((2R,3R,4S,5S)-5-((R)-1-(3,4-dichlorophenyl)-1-hydroxyethyl)-3,4-dihydroxytetrahydrofuran-2-yl)-1,7-dihydro-4H-pyrrolo[2,3-d]pyrimidin-4-one O-methyl oxime]	2.6	33	47	–
CO/N=c1/nc[nH]c2c1ccn2[C@@H]1O[C@H]([C@H](O)c2ccc(Cl)c(F)c2)[C@@H](O)[C@H]1O [compound 62, 7-((2R,3R,4S,5R)-5-((R)-(4-chloro-3-fluorophenyl)(hydroxy)methyl)-3,4-dihydroxytetrahydrofuran-2-yl)-1,7-dihydro-4H-pyrrolo[2,3-d]pyrimidin-4-one O-methyl oxime]	8.6	45	63	–
CO/N=c1\nc[nH]c2c1ccn2[C@@H]1O[C@H]([C@H](O)c2ccc(Cl)c(Cl)c2)[C@@H](O)[C@H]1O [compound 69, 7-((2R,3R,4S,5R)-5-((R)-(3,4-dichlorophenyl)(hydroxy)methyl)-3,4-dihydroxytetrahydrofuran-2-yl)-1,7-dihydro-4H-pyrrolo[2,3-d]pyrimidin-4-one O-methyl oxime hydrochloride]	1.8	28	32	–
CO/N=c1\nc[nH]c2c1ccn2[C@@H]1O[C@H]([C@H](O)c2ccc(F)c(F)c2)[C@@H](O)[C@H]1O [compound 70, 7-((2R,3R,4S,5R)-5-((R)-(3,4-difluorophenyl)(hydroxy)methyl)-3,4-dihydroxytetrahydrofuran-2-yl)-1,7-dihydro-4H-pyrrolo[2,3-d]pyrimidin-4-one O-methyl oxime]	10.2	48	130	–
CCO/N=c1/[nH]cnc2c1ccn2[C@@H]1O[C@H]([C@H](O)c2ccc(Cl)c(Cl)c2)[C@@H](O)[C@H]1O [compound 82, 7-((2R,3R,4S,5R)-5-((R)-(3,4-dichlorophenyl)(hydroxy)methyl)-3,4-dihydroxytetrahydrofuran-2-yl)-3,7-dihydro-4H-pyrrolo[2,3-d]pyrimidin-4-one O-ethyl oxime]	3.9	11	–	–
